# According to patent US5093359A, “Primycin components and process for the separation of the antibiotic complex” (priority 1984, dated 1992):
# Read-outs that look alike come from different tables or passages of the source.
# Columns and labels:
# [1] = tested on: Micrococcus flavus ATCC.10240.; assay: MIC, strain 19; format: cell-based
# [2] = tested on: Micrococcus luteus DSM.20030.; assay: MIC, strain 20; format: cell-based
# [3] = tested on: Pseudomonas aeruginosa CCM.1960.; assay: MIC, strain 22; conditions: 24 h
# Method: (§1) The antimicrobial activity of the primycin complex and the components thereof is tested on different microorganism strains.
# (§2) (Inoculation: 5 × 10^5 /ml, incubation at 37 C.° for
# [4] = tested on: Staphylococcus epidermidis CCM.2271; assay: MIC, strain 7; format: cell-based
# [5] = tested on: Bacillus subtilis CCM.1718.; assay: MIC, strain 17; format: cell-based
# [6] = tested on: Pseudomonas fluorescens CCM.2115.; assay: MIC, strain 23; conditions: 24 h
# Method: as §1, §2
# [7] = tested on: Salmonella typhimurium CCM.5445.; assay: MIC, strain 27; conditions: Salmonella enterica, 24 h
# Method: (§3) The table contains the MIC values (/μg/ml) measured on human pathogenic polyresistant strains.
# as §1, §2
# [8] = tested on: Listeria monocytogenes CCM.5576.; assay: MIC, strain 18; format: cell-based
# [9] = tested on: Bacillus cereus CCM.2010.; assay: MIC, strain 14; format: cell-based
# [10] = tested on: Streptococcus agalactiae CCM.5534.; assay: MIC, strain 11; format: cell-based; conditions: Streptococcus agalactiae, CCM.5534.
# [11] = tested on: Streptococcus disgalactiae ATTC.9926; assay: MIC, strain 12; format: cell-based
# [12] = tested on: Staphylococcus aureus Smith; assay: MIC, strain 8; format: cell-based
# [13] = tested on: Escherichia coli DSM.30038.; assay: MIC, strain 28; conditions: 24 h
# Method: as §3, §1, §2
# [14] = tested on: Shigella sonnei CCM.1373.; assay: MIC, strain 26; conditions: 24 h
# Method: as §3, §1, §2
# [15] = tested on: Staphylococcus aureus CCM.2514; assay: MIC, strain 5; format: cell-based
# [16] = tested on: Staphylococcus aureus CCM.2317.; assay: MIC, strain 3; format: cell-based
# [17] = tested on: Bacillus licheniformis CCM.2205.; assay: MIC, strain 16; format: cell-based
# [18] = tested on: Streptococcus agalactiae CCM.5153.; assay: MIC, strain 10; format: cell-based
# [19] = tested on: Staphylococcus aureus CCM.885.; assay: MIC, strain 1; format: cell-based
# [20] = tested on: Pseudomonas acidoverans CCM.283; assay: MIC, strain 24; conditions: CCM.283, 24 h
# Method: as §1, §2
# [21] = tested on: Staphylococcus aureus CCM.2515.; assay: MIC, strain 6; format: cell-based
# [22] = tested on: Streptococcus faecalis CCM.1875.; assay: MIC, strain 9; format: cell-based; conditions: Enterococcus faecalis
# [23] = tested on: Sporosarcina ureae DSM.317; assay: MIC, strain 21; conditions: DSM.317, 24 h
# Method: as §1, §2
# [24] = tested on: Bacillus subtilis ATTC.6633.; assay: MIC, strain 13; format: cell-based
# [25] = tested on: Staphylococcus aureus DSM.20231; assay: MIC, strain 2; format: cell-based; conditions: Staphylococcus aureus
# [26] = tested on: Staphylococcus aureus CCM.2326.; assay: MIC, strain 4; format: cell-based
# [27] = tested on: Proteus vulgaris CCM.1799.; assay: MIC, strain 25; conditions: 24 h
# Method: as §1, §2
# [28] = tested on: Bacillus licheniformis CCM.2182.; assay: MIC, strain 15; format: cell-based
# [29] = ATTC.9926, 24 h, strain 12, Table O, 24 hours
smiles,measurement,setting,value
"CCCCC1C(=O)OC(C(C)C(O)CCCNC(=N)N)C(C)C=C(C)CCCCC(O)CC(O)CC(O)CC(O)CC(O)CC=C(C)C(O)CCCC(O)CCCC(O)CCC(C)C1O (centres unmarked) [B1, hydropricin]",MIC,"[1]; strain 19, Table O, 24 hours, read-out: MIC",0.05 µg/mL
same,MIC,"[1]; strain 19, Tables I-XIII, 25 hours, read-out: MIC",0.05 µg/mL
same,MIC,"[2]; strain 20, Table O, 24 hours, read-out: MIC",0.075 µg/mL
same,MIC,"[2]; strain 20, Tables I-XIII, 25 hours, read-out: MIC",0.075 µg/mL
same,MIC,[3],25 µg/mL
same,MIC,"[4]; CCM.2271, strain 7, Table O, 24 hours, read-out: MIC",0.25 µg/mL
same,MIC,"[4]; CCM.2271, strain 7, Tables I-XIII, 25 hours, read-out: MIC",0.25 µg/mL
same,MIC,"[5]; 24 h, strain 17, Table O, 24 hours, read-out: MIC",0.25 µg/mL
same,MIC,"[5]; 25 h, strain 17, Tables I-XIII, 25 hours, read-out: MIC",0.25 µg/mL
same,MIC,[6],25 µg/mL
same,MIC,[7],50 µg/mL
same,MIC,"[8]; strain 18, Table O, 24 hours, read-out: MIC",0.25 µg/mL
same,MIC,"[8]; strain 18, Tables I-XIII, 25 hours, read-out: MIC",0.25 µg/mL
same,MIC,"[9]; 24 h, strain 14, Table O, 24 hours, read-out: MIC",0.25 µg/mL
same,MIC,"[10]; 24 h, strain 11, Table O, 24 hours, read-out: MIC",1 µg/mL
same,MIC,"[10]; 25 h, strain 11, Tables I-XIII, 25 hours, read-out: MIC",1 µg/mL
same,MIC,[11]; [29],2.5 µg/mL
same,MIC,"[12]; strain 8, Table O, 24 hours, read-out: MIC",0.5 µg/mL
same,MIC,"[12]; strain 8, Tables I-XIII, 25 hours, read-out: MIC",0.5 µg/mL
same,MIC,[13],50 µg/mL
same,MIC,[14],50 µg/mL
same,MIC,"[15]; CCM.2514, strain 5, Table O, 24 hours, read-out: MIC",0.1 µg/mL
same,MIC,"[15]; CCM.2514, strain 5, Tables I-XIII, 25 hours, read-out: MIC",0.1 µg/mL
same,MIC,"[16]; strain 3, Table O, 24 hours, read-out: MIC",0.1 µg/mL
same,MIC,"[16]; strain 3, Tables I-XIII, 25 hours, read-out: MIC",0.1 µg/mL
same,MIC,"[17]; strain 16, Table O, 24 hours, read-out: MIC",0.25 µg/mL
same,MIC,"[17]; strain 16, Tables I-XIII, 25 hours, read-out: MIC",0.25 µg/mL
same,MIC,"[18]; strain 10, Table O, 24 hours, read-out: MIC",0.5 µg/mL
same,MIC,"[18]; strain 10, Tables I-XIII, 25 hours, read-out: MIC",0.5 µg/mL
same,MIC,"[19]; strain 1, Table O, 24 hours, read-out: MIC",0.5 µg/mL
same,MIC,"[19]; strain 1, Tables I-XIII, 25 hours, read-out: MIC",0.5 µg/mL
same,MIC,[20],25 µg/mL
same,MIC,"[21]; strain 6, Table O, 24 hours, read-out: MIC",0.1 µg/mL
same,MIC,"[21]; strain 6, Tables I-XIII, 25 hours, read-out: MIC",0.1 µg/mL
same,MIC,"[22]; strain 9, Table O, 24 hours, read-out: MIC",2.5 µg/mL
same,MIC,"[22]; strain 9, Tables I-XIII, 25 hours, read-out: MIC",2.5 µg/mL
same,MIC,[23],0.025 µg/mL
same,MIC,"[24]; 24 h, strain 13, Table O, 24 hours, read-out: MIC",0.1 µg/mL
same,MIC,"[25]; DSM.20231, 24 h, strain 2, Table O, 24 hours, read-out: MIC",0.1 µg/mL
same,MIC,"[26]; strain 4, Table O, 24 hours, read-out: MIC",0.25 µg/mL
same,MIC,"[26]; strain 4, Tables I-XIII, 25 hours, read-out: MIC",0.25 µg/mL
same,MIC,[27],50 µg/mL
same,MIC,"[28]; strain 15, Table O, 24 hours, read-out: MIC",0.25 µg/mL
same,MIC,"[28]; strain 15, Tables I-XIII, 25 hours, read-out: MIC",0.25 µg/mL
"CCCCC1C(=O)OC(C(C)C(O)CCCNC(=N)N)C(C)C=C(C)CCCCC(O)CC(O)CC(O)CC(O)CC(O)C(OC2OC(CO)C(O)C2O)C=C(C)C(O)CCCC(O)CCCC(O)CCC(C)C1O (centres unmarked) [A1, chinopricin]",MIC,[1]; 24 h,0.075 µg/mL
same,MIC,[1]; 25 h,0.075 µg/mL
same,MIC,[2]; 24 h,0.05 µg/mL
same,MIC,[2]; 25 h,0.05 µg/mL
same,MIC,[3],25 µg/mL
same,MIC,"[4]; CCM.2271, 24 h",0.75 µg/mL
same,MIC,"[4]; CCM.2271, 25 h",0.75 µg/mL
same,MIC,[5]; 24 h,0.25 µg/mL
same,MIC,[5]; 25 h,0.25 µg/mL
same,MIC,[6],25 µg/mL
same,MIC,[7],50 µg/mL
same,MIC,[8]; 24 h,0.5 µg/mL
same,MIC,[8]; 25 h,0.5 µg/mL
same,MIC,[9]; 24 h,0.25 µg/mL
same,MIC,[9]; 25 h,0.25 µg/mL
same,MIC,[10]; 24 h,1 µg/mL
same,MIC,[10]; 25 h,1 µg/mL
same,MIC,[11]; [29],2.5 µg/mL
same,MIC,"[11]; ATTC.9926, 25 h, strain 12, Tables I-XIII, 25 hours",2.5 µg/mL
same,MIC,[12]; 24 h,0.25 µg/mL
same,MIC,[12]; 25 h,0.25 µg/mL
same,MIC,[13],50 µg/mL
same,MIC,[14],50 µg/mL
same,MIC,"[15]; CCM.2514, 24 h",0.25 µg/mL
same,MIC,"[15]; CCM.2514, 25 h",0.25 µg/mL
same,MIC,[16]; 24 h,0.25 µg/mL
same,MIC,[16]; 25 h,0.25 µg/mL
same,MIC,[17]; 24 h,0.25 µg/mL
same,MIC,[17]; 25 h,0.25 µg/mL
same,MIC,[18]; 24 h,0.75 µg/mL
same,MIC,[18]; 25 h,0.75 µg/mL
same,MIC,[19]; 24 h,0.25 µg/mL
same,MIC,[19]; 25 h,0.25 µg/mL
same,MIC,[20],25 µg/mL
same,MIC,[21]; 24 h,0.25 µg/mL
same,MIC,[21]; 25 h,0.25 µg/mL
same,MIC,[22]; 24 h,2.5 µg/mL
same,MIC,[22]; 25 h,2.5 µg/mL
same,MIC,[23],0.025 µg/mL
same,MIC,[24]; 24 h,0.25 µg/mL
same,MIC,[24]; 25 h,0.25 µg/mL
same,MIC,"[25]; DSM.20231, 24 h",0.05 µg/mL
same,MIC,"[25]; DSM.20231, 25 h",0.05 µg/mL
same,MIC,[26]; 24 h,0.25 µg/mL
same,MIC,[26]; 25 h,0.25 µg/mL
same,MIC,[27],50 µg/mL
same,MIC,[28]; 24 h,0.25 µg/mL
same,MIC,[28]; 25 h,0.25 µg/mL
